Experimental data taken from paper PMC3427316 (PLoS ONE, 2012).

Legend:
[1] = test system: NA with I223R mutation of H1N1pdm09 virus; format: biochemical, influenza A(H1N1)pdm09 virus
[2] = test system: H1N1pdm09 virus resistant to oseltamivir; settings: zanamivir inhaled (n = 8), intravenous (n = 5) or nebulised (n = 1); cited from earlier work

| SMILES | reduction in susceptibility associated with the I223R mutation [1] | patients with reduced viral shedding or recovery [2] |
| --- | --- | --- |
| CCC(CC)O[C@@H]1C=C(C(=O)O)C[C@H](N)[C@H]1NC(C)=O [OC, oseltamivir carboxylate] | 9 to 18 fold | – |
| CC(=O)N[C@H]1[C@H]([C@H](O)[C@H](O)CO)OC(C(=O)O)=C[C@@H]1N=C(N)N [ZAN, zanamivir] | – | 12/14 |
